“And” between values parts separate entries of the source, which are not always exact repeats. Equal entries are not always repeated. Where two headings read alike, the source gives them in different places.
Legend:
Assay in all cases: microbe, parasite or virus in culture
Format in all cases: cell-based, Plasmodium falciparum
[1] = test system: PfCA cKD P. falciparum line; conditions: for Growth: PfCA K/D
Text: (§1) Conditional knockdown (cKD) P. falciparum lines were generated for the cytosolic AsnRS (PF3D7_0211800), cytosolic AlaRS (PF3D7_1367700), cytosolic GlyRS (GlyRS; PF3D7_1420400), PfNT4 (PF3D7_0103200), P. falciparum glutamate dehydrogenase 3 (GDH3; PF3D7_0802000), and P. falciparum carbonic anhydrase (CA, PF3D7_1140000) by fusing the coding sequences and non-coding RNA aptamer sequences in the 3’-UTR, permitting translation regulation using the TetR-DOZI system[59],[60]. Gene editing was achieved by CRISPR/SpCas9 using the linear pSN054 vector that contains cloning sites for the left homology region (LHR) and the right homology region (RHR) as well a target-specific guide RNA under control of the T7 promoter. Cloning into the pSN054 donor vector was carried out following described procedures[59],[60]. The vector includes V5-2xHA epitope tags, a 10x tandem array of TetR aptamers upstream of an Hsp86 3’UTR, and a multicistronic cassette for expression of TetR-DOZI (translation regulation), blasticidin S-deaminase (selection marker) and a Renilla luciferase (RLuc) reporter. All primer and synthetic fragment sequences that were generated using the BioXP™ system and IDT gBlocks™ are included in Supplementary Table 9. The final constructs were sequence-verified and further confirmed by restriction digests.
(§2) Transfection into Cas9- and T7 RNA polymerase-expressing NF54 parasites was carried out by pre-loading red blood cells (RBCs) with the donor vector[61]. […] Cultures were monitored by Giemsa smears and RLuc measurements.
(§3) DMSO- and dihydroartemisinin-treatment (0.5 µM) served as reference controls.

[2] = test system: PfAlaRS cKD P. falciparum line; conditions: for Growth: PfAlaRS K/D; for IC50: PfAlaRS line, individual repeats
Text: as §1, §2, §3

[3] = test system: PfAsnRS cKD P. falciparum line; conditions: for growth after 72 h exposure, normalised to no drug: PfAsnRS K/D, replicates
Text: as §1, §2, §3

[4] = test system: PfGlyRS cKD P. falciparum line; conditions: for Growth: PfGlyRS K/D; for IC50: PfGlyRS line, individual repeats
Text: as §1, §2, §3

[5] = test system: PfGDH3 cKD P. falciparum line; conditions: for Growth: PfGDH K/D
Text: as §1, §2, §3

[6] = Plasmodium falciparum, 1 nM, […] aTc or no aTc
[7] = Plasmodium falciparum, 500 nM aTc

Nc1ncnc2cc(-c3cccc(S(N)(=O)=O)c3)sc12 [OSM-S-106]
Growth ([1]; 3.125 nM OSM-S-106, 500 nM aTc): 126.787 and 158.672 and 147.974 | Growth ([1]; 3.125 nM OSM-S-106, no aTc): 126.423 and 113.544 and 101.394 | Growth ([1]; 6.25 nM OSM-S-106, 500 nM aTc): 92.3654 and 131.4 and 126.99 | Growth ([1]; 6.25 nM OSM-S-106, no aTc): 110.949 and 103.392 and 134.667 | Growth ([1]; 12.5 nM OSM-S-106, 500 nM aTc): 103.771 and 150.344 and 136.72 | Growth ([1]; 12.5 nM OSM-S-106, no aTc): 107.898 and 113.66 and 101.587 | Growth ([1]; 25 nM OSM-S-106, 500 nM aTc): 66.7109 and 104.005 and 106.363 | Growth ([1]; 25 nM OSM-S-106, no aTc): 55.2693 and 67.1039 and 67.9395 | Growth ([1]; 50 nM OSM-S-106, 500 nM aTc): 39.8979 and 23.9771 and 45.5735 | Growth ([1]; 50 nM OSM-S-106, no aTc): 31.2463 and 15.9234 and 30.4793 | Growth ([1]; 100 nM OSM-S-106, 500 nM aTc): 11.4398 | Growth ([1]; 100 nM OSM-S-106, no aTc): 10.8379 and 9.475 and 12.418 | Growth ([1]; 200 nM OSM-S-106, 500 nM aTc): 5.818 and 8.3279 and 9.44 | Growth ([1]; 200 nM OSM-S-106, no aTc): 6.983 and 9.353 and 10.7306 | Growth ([1]; 400 nM OSM-S-106, no aTc): 0.8215 and 0.8297 and 1.231 | IC50 ([1]; PfCA line, 500 nM aTc, individual repeats): 0.0313 µM and 0.0376 µM | IC50 ([1]; Plasmodium falciparum, PfCA line, 1 nM, […] aTc or no aTc, individual repeats): 0.023 µM | IC50 ([1]; Plasmodium falciparum, PfCA line, 500 nM aTc, individual repeats): 0.0292 µM | IC50 ([1]; Plasmodium falciparum, read-out: Mean IC50 with 500 nM aTc, PfCA line, 500 nM aTc): 0.033 µM | IC50 ([1]; Plasmodium falciparum, read-out: Mean IC50 with low (1 or […])/ no aTc, PfCA knockdown, no aTc): 0.026 µM | Growth ([2]; 3.125 nM OSM-S-106, 500 nM aTc): 106.745 and 98.2451 and 120.926 | Growth ([2]; 6.25 nM OSM-S-106, 500 nM aTc): 90.3733 and 84.6837 and 109.578 | Growth ([2]; 12.5 nM OSM-S-106, 500 nM aTc): 88.5694 and 88.7266 and 97.0041 | Growth ([2]; 25 nM OSM-S-106, 500 nM aTc): 83.1875 and 95.5017 and 98.3659 | Growth ([2]; 50 nM OSM-S-106, 500 nM aTc): 55.6885 and 91.3478 and 80.2088 | Growth ([2]; 200 nM OSM-S-106, 500 nM aTc): 76.3648 | Growth ([2]; 200 nM OSM-S-106, […] aTc): 67.5946 | IC50 ([2]; 1 nM, […] aTc or no aTc): 0.0462 µM | IC50 ([2]; 500 nM aTc): 0.0997 µM | IC50 [2, 6]: 0.0568 µM | IC50 [2, 7]: 0.0784 µM | growth after 72 h exposure, normalised to no drug ([3]; 1 nM aTc, 3.125 nM): 100 (2×) and 98.2196 | growth after 72 h exposure, normalised to no drug ([3]; 1 nM aTc, 6.25 nM): 101.298 and 95.7154 and 83.7406 | growth after 72 h exposure, normalised to no drug ([3]; 1 nM aTc, 12.5 nM): 113.486 and 107.859 and 50.8034 | growth after 72 h exposure, normalised to no drug ([3]; 1 nM aTc, 25 nM): 72.3501 and 87.3666 and 36.7561 | growth after 72 h exposure, normalised to no drug ([3]; 1 nM aTc, 50 nM): 8.286 and 14.406 and 55.7128 | growth after 72 h exposure, normalised to no drug ([3]; 1 nM aTc, 100 nM): 12.9721 and 14.646 and 33.4758 | growth after 72 h exposure, normalised to no drug ([3]; 1 nM aTc, 200 nM): 2.187 and 4.184 and 3.619 | growth after 72 h exposure, normalised to no drug ([3]; 1 nM aTc, 400 nM): 0.0118 and 0.3256 and 1.407 | growth after 72 h exposure, normalised to no drug ([3]; 1 nM aTc, 800 nM): 0 (2×) and 0.3116 | growth after 72 h exposure, normalised to no drug ([3]; 1 nM aTc, […]): 95.5045 | growth after 72 h exposure, normalised to no drug ([3]; 500 nM aTc, 3.125 nM): 100 (2×) and 130.484 | growth after 72 h exposure, normalised to no drug ([3]; 500 nM aTc, 6.25 nM): 102.095 and 95.7689 and 98.7064 | growth after 72 h exposure, normalised to no drug ([3]; 500 nM aTc, 12.5 nM): 106.159 and 101.462 and 104.967 | growth after 72 h exposure, normalised to no drug ([3]; 500 nM aTc, 25 nM): 108.223 and 97.6665 and 110.496 | growth after 72 h exposure, normalised to no drug ([3]; 500 nM aTc, 50 nM): 109.874 and 96.9998 and 112.12 | growth after 72 h exposure, normalised to no drug ([3]; 500 nM aTc, 100 nM): 74.5373 and 61.9971 and 57.4067 | growth after 72 h exposure, normalised to no drug ([3]; 500 nM aTc, 200 nM): 13.0647 and 13.1882 and 56.7167 | growth after 72 h exposure, normalised to no drug ([3]; 500 nM aTc, 400 nM): 1.083 and 1.38 and 11.7035 | growth after 72 h exposure, normalised to no drug ([3]; 500 nM aTc, 800 nM): 0 (2×) and 1.573 | growth after 72 h exposure, normalised to no drug ([3]; 500 nM aTc, […]): 123.179 | IC50 ([3]; PfAsnRS line, 500 nM aTc, individual repeats): 0.116 µM and 0.175 µM | IC50 ([3]; Plasmodium falciparum, PfAsnRS line, 500 nM aTc, individual repeats): 0.123 µM | IC50 ([3]; Plasmodium falciparum, read-out: Mean IC50 with 500 nM aTc, PfAsnRS line, 500 nM aTc): 0.14 µM | IC50 ([3]; Plasmodium falciparum, read-out: Mean IC50 with low (1 or […])/ no aTc, PfAsnRS knockdown, low aTc): 0.026 µM | Growth ([4]; 3.125 nM OSM-S-106, 500 nM aTc): 112.465 and 111.772 and 85.4538 | Growth ([4]; 6.25 nM OSM-S-106, 500 nM aTc): 122.27 and 121.35 and 91.2762 | Growth ([4]; 12.5 nM OSM-S-106, 500 nM aTc): 106.05 and 112.162 and 76.632 | Growth ([4]; 100 nM OSM-S-106, 500 nM aTc): 9.878 and 6.142 and 8.685 | Growth ([4]; 200 nM OSM-S-106, 500 nM aTc): 7.891 and 8.53 and 4.96 | IC50 ([4]; 1 nM, […] aTc or no aTc): 0.0407 µM | IC50 ([4]; 500 nM aTc): 0.0372 µM | IC50 [4, 6]: 0.0395 µM | IC50 [4, 7]: 0.0393 µM | Growth ([5]; 3.125 nM OSM-S-106, 500 nM aTc): 94.0541 and 124.457 and 123.311 and 110.909 | Growth ([5]; 3.125 nM OSM-S-106, no aTc): 87.3995 and 105.933 and 109.078 and 106.271 | Growth ([5]; 6.25 nM OSM-S-106, 500 nM aTc): 100.123 and 114.751 and 110.911 and 107.384 | Growth ([5]; 6.25 nM OSM-S-106, no aTc): 83.7383 and 126.64 and 124.278 and 107.945 | Growth ([5]; 12.5 nM OSM-S-106, 500 nM aTc): 87.2036 and 124.904 and 116.677 and 110.631 | Growth ([5]; 12.5 nM OSM-S-106, no aTc): 66.2785 and 97.9464 and 116.025 and 105.41 | Growth ([5]; 200 nM OSM-S-106, 500 nM aTc): 11.4175 and 15.1341 and 15.4371 and 10.7452 | Growth ([5]; 200 nM OSM-S-106, no aTc): 9.827 and 15.4022 and 15.1307 and 8.291 | IC50 ([5]; PfGDH3 line, 500 nM aTc, individual repeats): 0.0228 µM and 0.0695 µM and 0.0365 µM and 0.0302 µM | IC50 ([5]; Plasmodium falciparum, read-out: Mean IC50 with 500 nM aTc, PfGDH3 line, 500 nM aTc): 0.04 µM | IC50 ([5]; Plasmodium falciparum, read-out: Mean IC50 with low (1 or […])/ no aTc, PfGDH3 knockdown, no aTc): 0.046 µM
